For the test, the target named is Human immunodeficiency virus type 1 protease (Human immunodeficiency virus 1, UniProt Q72874). Briefly: The compound was tested in vitro for its inhibitory activity against HIV-1 Proteinase activity.

The results in this text go back to ChEMBL document CHEMBL1127200, “Novel dimeric penicillin derived inhibitors of HIV-1 proteinase: interaction with the catalytic aspartates” (Bioorg Med Chem Lett, 1993).

As usually defined, the IC50 is the concentration needed to halve the response being measured. A low value points to higher potency.

`CC1(C)S[C@H]([C@H](NC(=O)Cc2ccccc2)C(=O)NCc2ccccc2)N[C@H]1C(=O)NC[C@@H](O)[C@@H](O)CNC(=O)[C@@H]1N[C@@H]([C@H](NC(=O)Cc2ccccc2)C(=O)NCc2ccccc2)SC1(C)C` displayed a half-maximal inhibitory concentration (IC50) of 14 nM. With `CC1(C)S[C@H]([C@H](NC(=O)Cc2ccccc2)C(=O)NCc2ccccc2)N[C@H]1C(=O)NCCCCNC(=O)[C@@H]1N[C@@H]([C@H](NC(=O)Cc2ccccc2)C(=O)NCc2ccccc2)SC1(C)C` the figure was 530 nM; with `CC1(C)S[C@H]([C@H](NC(=O)Cc2ccccc2)C(=O)NCc2ccccc2)N[C@H]1C(=O)NC[C@@H](O)[C@H](O)CNC(=O)[C@@H]1N[C@@H]([C@H](NC(=O)Cc2ccccc2)C(=O)NCc2ccccc2)SC1(C)C`, 15 nM; with `CC1(C)S[C@H]([C@H](NC(=O)Cc2ccccc2)C(=O)NCc2ccccc2)N[C@H]1C(=O)NC[C@H](O)[C@@H](O)CNC(=O)[C@@H]1N[C@@H]([C@H](NC(=O)Cc2ccccc2)C(=O)NCc2ccccc2)SC1(C)C`, 36 nM.

As to `CCCNC(=O)[C@@H](NC(=O)Cc1ccccc1)[C@@H]1N[C@@H](C(=O)N(C)CCN(C)C(=O)[C@@H]2N[C@@H]([C@H](NC(=O)Cc3ccccc3)C(=O)NCC)SC2(C)C)C(C)(C)S1`, the IC50 was 11 nM.

The molecule `CCCNC(=O)[C@@H](NC(=O)Cc1ccccc1)[C@@H]1N[C@@H](C(=O)NCC(CO)NC(=O)[C@@H]2N[C@@H]([C@H](NC(=O)Cc3ccccc3)C(=O)NCC)SC2(C)C)C(C)(C)S1` (stereo partly specified) yielded an IC50 of 25 nM.
